# Test results reported in patent US7524487B2, “Compositions and methods for modulating interleukin-10” (University of Maryland, priority 2005, dated 2009).
# Like-named read-outs stand apart in the source and are kept apart here.
# Experiments:
# ERK1/2 = assay: Western blot of ERK activation (phospho-ERK) in macrophages; type: cell-based, mice; settings: macrophages stimulated with LPS 10 ng/ml plus the agent, versus LPS alone
# Method: FIG. 1 is a Western blot showing the kinetics of MAPK activation in bone marrow derived macrophages (BMMφ) stimulated with (LPS) alone or LPS in combination with E-IgG, an immune complex that ligates the FcγR. BMMφ were stimulated with LPS (10 ng/ml)±E-IgG. Cells were then lysed at the indicated times and equal amounts of whole cell lysates were separated by SDS PAGE and analyzed by Western blotting using phospho-specific Abs to ERK1/2, p38 or JNK. Total ERK1/2 (bottom panel) was used as the loading control.
# Western blots. 2×10^6 BMMφper well were plated overnight in 60 mm culture dishes. […]
# Cells were lysed at various indicated times and ERK activation was measured by Western Blot using antibodies to phosphorylated ERK (FIG. 9B).
# ERK activation was analyzed at the indicated times by Western Blot, using antibodies to phosphorylated ERK.
# [1] = system: bone marrow derived macrophages (BMMφ); assay: Cytokine ELISA on supernatants of stimulated bone marrow derived macrophages (LPS ± E-IgG)
# IL-10 promoter = assay: ChIP of histone H3 phosphorylation at the IL-10 promoter in stimulated BMMφ; type: cell-based, mice; settings: BMMφ pretreated 30 min with PD98059 10 μM or SB203580 1 μM, then IgG-OVA + LPS for 40 min
# Method: BMMφ were stimulated with medium (open bars), LPS (solid bars) or E-IgG+LPS (striped bars) for 15 minutes (A), or the indicated times (B) and ChIP assays were carried out as described in Materials and Methods. Immunoprecipitations utilized antibodies specific to phospho-H3 (left panel) or acetyl-H3 (right panel). A. conventional RT-PCR and B. real time PCR were carried out using IL-10 promoter or IL-12p40 promoter specific primers. For real time PCR, samples were normalized to input DNA controls.
# Cells were pretreated with PD98059 (10 μM), SB203580 (1 μM) or medium for 30 min then stimulated with medium (open bar), IgG-OVA (dotted bar), LPS (solid bar), or both (striped bars) for 40 min. ChIP analysis was carried out using a phospho-H3 specific Ab. A. Conventional RT-PCR was carried out using IL-10 promoter or IL-12p40 promoter specific primers. B. Real time PCR analysis of samples obtained in A. Samples were normalized to input DNA controls.
# FIG. 22 is a graph showing Inhibition of histone modifications by blocking ERK. BMMφ were pre-treated with PD98059 (15 μM) (solid bars) or drug vehicle (open bars) for 1 hour and then stimulated with IC plus LPS (10 ng/mL). Cross-linked chromatin fragments were immunoprecipitated with antibody to phosphorylated histone H3 at Ser 10 or antibody to Sp1. The DNA was purified and analyzed for the presence of IL-10 promoter sequences corresponding to nucleosome −2 by QRT-PCR. The data were plotted graphically as the percentage change relative to drug vehicle (IC/LPS) at 30 min post-stimulation for histone H3 phosphorylation, and at 45 min post-stimulation for Sp1 recruitment. One representative from two independent experiments is presented.
# Chromatin immunoprecipitation (ChIP). ChIPs were carried out using the ChIP Assay kit following the manufacturer's protocol (Upstate USA, Inc., Lake Placid, N.Y.). Briefly, 1×10^6 BMMφ were plated overnight in 6-well plates. Cells were stimulated as described in Figure Legends then fixed for 10 min at 37° C. in paraformaldehyde (1% final concentration). […]
# BMMφ = assay: Cytokine ELISA (IL-10, IL-12) after HDAC inhibitor treatment of BMMφ stimulated with LPS+IC; type: cell-based, mice; settings: TSA added to BMMφ for 1 hr, washed, then 10 ng/ml LPS+IC for 6 hrs
# Method: FIG. 21 is a graph showing cytokine production following histone deacetylation. TSA was added to BMMφ for 1 hr and the cells were then washed with warmed medium before stimulation with 10 ng/ml LPS+IC. After LPS+IC stimulation for 6 hrs, the supernatants were collected and IL-10 and IL-12 were measured by ELISA. Results shown are one representative from two independent experiments conducted in triplicate (mean±SD).
# To further examine histone acetylation, macrophages were treated with increasing doses of the HDAC inhibitor, TSA, prior to stimulation. IL-10 levels were measured 6 hrs later. […] This observation is consistent with the hypothesis that an increase in histone H3 acetylation was not a pre-requisite for IL-10 gene transcription following stimulation by LPS+IC.
molecule,measurement,setting,value
"CCCCCCCCCCCCCC(=O)O[C@@H]1[C@@H](C)[C@@]2(O)[C@@H](C=C(CO)C[C@]3(O)C(=O)C(C)=C[C@@H]23)[C@@H]2C(C)(C)[C@]12OC(C)=O [PMA, phorbol 12-myristate 13-acetate]","ERK activation (phosphorylated ERK, Western blot)",ERK1/2,activated
same,IL-10 production (ELISA) of LPS-stimulated macrophages in presence of the ERK activator,[1],induced
C[S+]([O-])c1ccc(-c2nc(-c3ccncc3)c(-c3ccc(F)cc3)[nH]2)cc1 (centres unmarked) [SB203580],histone H3 phosphorylation at the IL-10 promoter induced by immune complex (ChIP),IL-10 promoter,"decreasing it substantially, but not reducing it to background levels"
same,IL-10 secretion (ELISA),"[1]; BMMφ pretreated 30 min with PD98059 10 μM, SB203580 1 μM or JNK inhibitory peptide 1 μM, then LPS 10 ng/ml ± E-IgG, supernatants after 20 h",substantial inhibition
same,IL-12 (p40) production (ELISA),"[1]; BMMφ pretreated 30 min with inhibitor, then LPS 10 ng/ml ± E-IgG, 20 h",Neither of these inhibitors decreased
same,LPS-induced IL-10 production,"[1]; BMMφ, LPS 10 ng/ml alone, 20 h, inhibitor pretreatment or 100 nM siRNA",prevented
"CC(/C=C/C(=O)NO)=C\[C@@H](C)C(=O)c1ccc(N(C)C)cc1 [TSA, Trichostatin A]",IL-10 production (ELISA),BMMφ,failed to influence
same,IL-12 production (ELISA),BMMφ,substantially inhibit
"CSF-1: colony stimulating factor-1, an ERK activating agent identified by the screening method (protein, UniProt P09603 33-554, looked up) Macrophage colony-stimulating …: EEVSEYCSHMIGSGHLQSLQRLIDSQMETSCQITFEFVDQEQLKDPVCYLKKAFLLVQDIMEDTMRFRDNTPNAIAIVQLQELSLRLKSCFTKDYEEHDKACVRTFYETPLQLLEKVKNVFNETKNLLDKDWNIFSKNCNNSFAECSSQDVVTKPDCNCLYPKAIPSSDPASVSPHQPLAPSMAPVAGLTWEDSEGTEGSSLLPGEQPLHTVDPGSAKQRPPRSTCQSFEPPETPVVKDSTIGGSPQPRPSVGAFNPGMEDILDSAMGTNWVPEEASGEASEIPVPQGTELSPSRPGGGSMQTEPARPSNFLSASSPLPASAKGQQPADVTGTALPRVGPVRPTGQDWNHTPQKTDHPSALLRDPPEPGSPRISSLRPQGLSNPSTLSAQPQLSRSHSSGSVLPLGELEGRRSTRDRRSPAEPEGGPASEGAARPLPRFNSVPLTDTGHERQSEGSFSPQLQESVFHLLVPSVILVLLAVGGLLFYRWRRRSHQEPQRADSPLEQPEGSPLTQDDRQVELPV","ERK activation (phosphorylated ERK, Western blot)",ERK1/2,activated
same,IL-10 production (ELISA) of LPS-stimulated macrophages in presence of the ERK activator,"[1]; LPS plus agent versus LPS alone, CSF-1 100 ng/ml added simultaneously with LPS, IL-10 measured 20 hrs later",induce more IL-10
same,IL-10 induction by the agent on its own,[1]; macrophages without inflammatory stimulus,does not induce IL-10 on its own
